Measurements as given in US10945971B2, “Sphingosine kinase type 1 inhibitors and uses thereof” (Enzo Therapeutics, Inc., priority 2008, dated 2021).

Assays:
[1] = test system: LN229 cells; assay: Cell proliferation (WST-1), LN229 cells; assay type: cell-based, human
Experimental: (§1) U373-MG and LN229 human glioblastoma cells (ATTC, Manassas, Va.) were cultured in DMEM supplemented with 5% FCS. Primary human non-established glioblastoma GBM6 cells were kindly provided by Dr. C. David James and were passaged as tumors in nude mice and subcultured for 1 week following isolation from tumors in media containing 2% FCS to prevent growth of contaminating rodent fibroblasts and then cultured in 5% FCS as described (Yacoub et al., Mol Cancer Ther 7:314-329, 2008). LN229 cells were transfected with H2B-EGFP plasmid and stable colonies were isolated following selection with 1 mg/ml of G418. LN229-H2B-EGFP cells were passaged as tumors as described above.
(§2) Cells were plated at 10,000 cells/well in 48-well plates and allowed to attach for 24 h. Cell proliferation was measured at the indicated times with WST-1 and absorbance was measured in a plate reader at 450 nm with background subtraction at 630 nm. Cell death was detected by trypan blue exclusion assays in which the percent of blue dye incorporating cells were determined using a light microscope and a hemacytometer as described (Yacoub et al. Mol Cancer Ther 7:314-329, 2008). Apoptotic cell death was measured by staining cell nuclei with the Hoechst dye bisbenzimide and apoptotic cells were identified by condensed, fragmented nuclear regions as described previously (Sankala et al. Cancer Res 67:10466-10474, 2007). A minimum of 300 cells was scored.

[2] = test system: GBM6 glioblastoma cells; assay: Cell proliferation (WST-1), primary non-established GBM6 cells; assay type: cell-based, human
Experimental: as §1
as §2, with “A minimum of 300 cells was scored.” left out

[3] = test system: U87 cells; assay: Proliferation of U87 glioblastoma cells; assay type: cell-based, human
Experimental: as §2

[4] = test system: U373 cells; assay: Boyden chamber chemotaxis, U373 cells; assay type: cell-based, human
Experimental: (§3) Boyden chamber invasion assays were carried out essentially as described (Shida et al. Cancer Res 68:6569-6577, 2008).

[5] = test system: LN229 cells; assay: Boyden chamber chemotaxis, LN229 cells; assay type: cell-based, human
Experimental: as §3

[6] = test system: GBM6; assay: In vitro invasion, GBM6 cells; assay type: cell-based, human
Experimental: as §3

[7] = test system: Akt; assay: Western blotting of Akt phosphorylation, LN229 cells; assay type: cell-based, human; settings: LN229, serum, LPA or EGF stimulated, 20 minutes treatment
Experimental: (§4) Cells were scraped in buffer containing 20 mM Tris-HCl, pH 7.5, 50 mM NaCl, 50 mM NaF, 30 mM Na4P2O7, 20 mM 2-glycerophosphate, 1 mM Na3VO4, 5 mM EDTA, 2 mM EGTA, 0.5% SDS and protease inhibitor cocktail (1:200 dilution) and probe-sonicated. Equal amounts of protein determined with bicinchoninic acid (Pierce, Rockford, Ill.), were resolved by SDS-PAGE and transferred to nitrocellulose membranes. Blots were blocked with 5% non-fat dry milk in Tris-buffered saline containing 0.1% […] (TBST) for 1 h at room temperature, and then incubated with primary antibodies (1:3,000 in 1% BSA) overnight, followed by the appropriate HRP-conjugated secondary antibodies (1:40,000 in 1% BSA). Immunocomplexes were visualized by enhanced chemiluminescence (Pierce).

[8] = test system: p70S6K; assay: Western blotting of p70S6K phosphorylation, LN229 cells; assay type: cell-based, human
Experimental: as §4

[9] = test system: ERK1/2; assay: Western blotting of ERK1/2 activation, U373 cells; assay type: cell-based, human
Experimental: as §4

[10] = test system: EGFR, Gab1; assay: EGF-induced tyrosine phosphorylation of EGFR and Gab1; assay type: cell-based
Experimental: as §4

[11] = test system: LN229 cells; assay: Apoptosis of LN229 cells (PARP cleavage, nuclear condensation, TUNEL); assay type: cell-based, human
Experimental: Cells were grown on 3-aminopropyl-triethoxysilane-treated 15 mm glass cover slips in 24 well plates. Following treatments, cells were washed with PBS, fixed with 3% paraformaldehyde for 10 min at room temperature, and blocked in TBST buffer containing 1% BSA. After washing, cells were incubated in the same buffer containing Alexa-conjugated phalloidin for 30 min, followed by 15 min incubation in 10 μg/ml of Hoechst 33342. For TUNEL assays, fixed cells were permeabilized with 0.5% TX-100 for 30 min, washed and incubated in TdT buffer supplemented with 250 μM CoCl2, 20 units TdT (NEB, Ipswich, Mass.) and 1 nM fluorescein-12-dUTP (Roche) for 1 h at 37° C. […]
as §2, with “A minimum of 300 cells was scored.” left out

[12] = test system: LN229 xenograft tumors; assay: Subcutaneous LN229 xenograft tumors in nu/nu mice; assay type: in vivo; settings: 10 mg/kg i.p. every other day
Experimental: Adult male NCI nu/nu mice were purchased from NCI (Frederick, Md.). All animal studies were conducted in the Animal Research Core Facility at VCU School of Medicine in accordance with the institutional guidelines. LN229 cells (1×10^6) were injected in the flanks (4 sites per mouse). Palpable tumors appeared in about one week. Five days later, when tumors reached 3-4 mm in diameter, mice were randomly separated into 2 groups and injected i.p. with saline or SK1-I (10 mg/kg) every other day. Tumor measurements were made with calipers, and tumor volume was calculated using the formula: (π×[length in millimeters]×[width in millimeters]2)/6. At the end of the experiment, the animals were euthanized and the tumors removed, fixed in formalin and embedded in paraffin, or frozen in liquid nitrogen.
Paraffin sections were dewaxed, rehydrated, incubated with proteinase K before permeabilization, and then stained with hematoxylin-eosin. Frozen sections were dried, fixed in formalin, and stained with antibodies against mouse CD-31 (BD Pharmingen, San Jose, Calif.), or rabbit antibodies against phospho-Akt (Ser473) (Cell Signaling) followed by immunohistochemistry with Alexa-488-conjugated species-specific secondary antibodies. Cryosections were air dried, permeabilized with 0.5% Triton X-100, and stained with a fluorescein TUNEL labeling kit (Roche Applied Sciences, Indianapolis, Ind.) followed by counterstaining with Hoechst. Sections were also stained with goat anti-human VEGF affinity-purified antibody (R&D), visualized with anti-goat horseradish peroxidase-diaminobenzidene staining kit (R&D) and counterstained with hematoxylin.

[13] = target: Akt (Homo sapiens, UniProt P31749); settings: Paugh et al. Blood 2008; cited from earlier work
[14] = U.S. Ser. No. 12/387,228; cited from earlier work
[15] = test system: blasts obtained from patients with AML; settings: U.S. Ser. No. 12/387,228; cited from earlier work

Chain of Akt (Homo sapiens, UniProt P31749) (P31749 whole entry): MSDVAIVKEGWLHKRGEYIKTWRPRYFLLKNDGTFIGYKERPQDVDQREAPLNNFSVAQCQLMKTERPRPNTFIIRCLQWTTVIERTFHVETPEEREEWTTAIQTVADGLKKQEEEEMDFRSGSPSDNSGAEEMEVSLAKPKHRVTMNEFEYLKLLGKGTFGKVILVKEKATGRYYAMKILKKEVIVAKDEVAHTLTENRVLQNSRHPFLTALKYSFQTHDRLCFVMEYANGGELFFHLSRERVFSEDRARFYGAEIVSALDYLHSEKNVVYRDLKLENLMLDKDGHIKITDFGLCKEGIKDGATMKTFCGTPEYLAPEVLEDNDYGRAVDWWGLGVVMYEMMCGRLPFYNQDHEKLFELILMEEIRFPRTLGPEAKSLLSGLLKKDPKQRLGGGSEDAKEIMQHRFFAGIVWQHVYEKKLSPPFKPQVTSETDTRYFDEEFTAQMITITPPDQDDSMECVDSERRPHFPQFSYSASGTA

## CCCCCc1ccc(/C=C/[C@H](O)[C@@H](CO)NC)cc1 [SK1-I, (2R,3S,4E)-N-methyl-5-(4′-pentylphenyl)-2-aminopent-4-ene-1,3-diol]
[1]; LN229, 10 μM, absence of serum
  cell growth: strongly inhibited growth
[1]; LN229, 10 μM, presence of serum, within 2-4 days
  cell numbers: severe reductions in cell numbers
[1]; LN229 cells
  concentration at which a significant growth inhibitory effect was observed: 3 µM
[2]; GBM6, 10 μM, presence of serum
  cell growth: markedly reduced growth
[2]; GBM6, absence of serum
  lowest concentration with significant growth inhibition: 1 µM
[3]
  proliferation: suppress proliferation
[4]
  chemotaxis toward serum or EGF: reduced
[5]
  chemotaxis toward lysophosphatidic acid (LPA): drastically inhibited
  chemotaxis toward serum and EGF: significantly inhibited
[6]
  serum- and EGF-induced invasion: suppressed
[7]
  phosphorylation of Akt at Thr308 and Ser473: markedly suppressed
[8]
  activation of p70S6K (Thr389): reduced activation
[9]
  EGF- and serum-induced ERK1/2 activation: did not reduce
[10]
  EGF-induced tyrosine phosphorylation of EGFR or of Gab1: did not affect
[11]
  apoptosis (PARP cleavage, fragmented and condensed nuclei, TUNEL): induced apoptosis
[12]
  TUNEL positive apoptotic tumor cells: increased numbers
  VEGF expression in tumors: greatly reduced
  blood vessel density (CD31 staining): reductions
  phosphorylated Akt immunostaining in tumors: markedly decreased
  vascularization in tumors (hematoxilin and eosin): decreased vascularization
[12]; after 43 days, vs vehicle
  reduction of tumor weight: ~4 fold
[12]; vs control, single factor ANOVA
  tumor volume: significantly smaller tumors
[13]
  Akt activity in an in vitro kinase assay: did not inhibit Akt activity
[14]
  water solubility: water-soluble
[15]
  apoptosis: markedly induced apoptosis
